Read-outs that look alike come from different tables or passages of the source.
Key:
[1] = h9e-2i medium hydrogel rheology and stability; assay type: physicochemical
Description: Two different types of stem cell mediums were selected for this test. One is a low glucose DMEM medium with 2% (v/v) Fetal Bovine Serum (FBS) for Mesenchymal Stromal Cell (MSC medium). The other one is a N2B27 supplemented serum-free 2i medium with 0.5% (v/v) Bovine Serum Albumin (BSA) for rat Embryonic Stem Cell (ESC, 2i medium). The hydrogel formation process was monitored under a time sweep rheological test for 1 hour. The special shear-thinning and self-healing property of h9e peptide hydrogel was also tested. […] In addition, the stability of hydrogel as well as the peptide solution before the hydrogel formation was also tested.
The h9e peptide was synthesized according to the method mentioned above. Lyophilized peptide was added to 100 mM sodium bicarbonate and completely dissolved by magnetic stirring for 3 hours with a final peptide concentration of 10 mM. For hydrogelation, peptide solution was added into MSC medium or 2i medium and the mixture was hand-shaken for about 10 seconds or gently pipette mixed 3 times. The final peptide concentrations were 1, 2, and 3 mM.
The storage and loss moduli (G′ and G″, respectively) of h9e hydrogels were determined on a C-VOR 150 rheometer system (Malvern instruments, Malvern, Worcestershire WR141XZ, United Kingdom) with a 20-mm diameter parallel plate geometry and 500 μm gap size at 37° C. The methods for hydrogel formation test and shear-thinning and self-healing test were the same as the methods of cancer cell medium mentioned above. After 24 hours of hydrogel formation, 2 mM peptide hydrogel was diluted 20 fold by adding cell culture medium and thorough mixing by pipette. The diluted solution was transferred to rheometer system and tested under 1 Hz frequency and 1% shear strain at 4° C. for 1 hour.
The stability of h9e-2i medium hydrogel was tested. A plastic tray was placed on the bottom of the well plate. Next, 1 wt % h9e solution was mixed with 2i medium at 1:1 (v:v) ratio in a centrifuge tube and then transferred into the well plate. There was 500 μl peptide hydrogel for each well. The well plate was then placed in an incubator for 1 hour. After hydrogel was stable, another 500 μl of 2i medium was slowly added on the top of hydrogel. The top medium was replaced every other day. For mechanical testing, the top 2i medium was removed and hydrogel was transferred to a dynamic rheometer using the tray. The stability of the peptide solution was also tested using 1 wt % peptide solution stored in 4° C. refrigerator for up to 24 days. Part of the peptide solution was taken out and mixed with 2i medium with 1:1 (v:v) ratio on days 1, 6, 18 and 24. The hydrogel formation process was monitored under the single frequency (1 Hz) rheological test with 1% shear strain for 1 hour.

[2] = Comparison of material properties of 3D cell culture hydrogels; assay type: physicochemical
HeLa cells = assay: HeLa cell viability (CCK-8) in 3D h9e hydrogel; assay type: cell-based; details: same amount of camptothecin
Description: Cell culture and drug efficacy/diffusion tests: HeLa cells were grown in the hydrogel in 3D. Aliquots of HeLa cells solution were added into […] hydrogel with DMEM containing 10% FBS with a final peptide concentration of 0, 0.25, 0.5 and 1 wt %. 100 μl of cell mixture solution (3×10^4 cells per well) was seeded into a 96-well culture plate (Becton Dickinson Labware, Franklin Lakes, N.J.) and placed in an incubator (Nuair, Playmouth, Minn.) in a humidified 5% CO2 atmosphere at 37° C. for about 30 min. After complete hydrogelation, 10 μl of DMEM containing 0, 50 uM, 100 uM, or 200 uM camptothecin was added on top of the hydrogel to obtain camptothecin concentrations of 0 μM, 3.125 μM, 6.25 μM, and 12.5 μM, respectively, upon total diffusion in the hydrogel. Then, 50 ul of DMEM was carefully added to the top of the hydrogel to prevent drying during long-term incubation. All measurements were made at least in triplicate, and the plates were incubated for 3 days. A CCK-8 assay was used to determine cell viability after each treatment. 10 μL of CCK solution was added to each well. After 4 h of incubation, the absorbance at 450 nm was collected on a microplate reader (mQuant, Bio-Tek) and corrected by subtracting the background signal from a wall containing only 160 ul DMEM containing 10% FBS. […]

[3] = Rheology of h9e/BSA hydrogel formation (storage modulus G′); assay type: physicochemical; details: for G′ after 2 hours of testing: 3 mM h9e
Description: For albumin triggered hydrogel formation, 10 mM (1.74 wt %) peptide was first dissolved in 100 mM NaHCO3 solution. BSA and HSA were dissolved in water with 5 wt % concentration. The peptide solution and albumin solution were then mixed at different ratios for final mixtures of 1, 2, 3 mM h9e peptide with albumin from 0.1 to 5 wt %.
The storage (G′) and loss (G″) moduli of h9e hydrogels with different peptide/albumin ratios were measured on a rheometer system C-VOR 150 (Malvern instruments, Malvern, Worcestershire WR141XZ, United Kingdom) with a 20 mm diameter parallel plate test system. All rheological tests were carried out at 37° C. […]

H-FLIVIGSIIGPGGDGPGGD-NH2 [h9e, FLIVIGSIIGPGGDGPGGD]
stability of h9e solution [1]: exceed 2 months | G′ ([1]; 1 mM h9e-2i hydrogel): about 100 Pa | G′ after shearing into liquid state ([1]; 2 mM h9e-2i hydrogel): < 0.2 Pa | stable G′ ([1]; 2 mM h9e-2i hydrogel): 600 Pa | mechanical strength restored ([1]; 2 mM h9e-2i hydrogel, within a few minutes of recovery test): 100% | stable G′ ([1]; 3 mM h9e-2i hydrogel): 600 Pa | G′ of h9e-2i hydrogel during 7 days (stability) ([1]; 1 wt % h9e solution mixed 1:1 with 2i medium): 130-160 Pa | stability of h9e solution ([1]; stored at 4° C. for 24 days, then mixed with 2i medium): could still form a hydrogel | Porosity [2]: 50-200 nm | HeLa cell viability across h9e hydrogel concentrations (HeLa cells): cell viability was comparable | hydrogel formation ([3]; 1 mM peptide with 1 wt % BSA, 2 hour test): performed like a Newtonian liquid | stable G′ ([3]; 3 mM h9e peptide solution mixed with 5% BSA, 37° C.): around 200 Pa | behaviour of peptide solution alone ([3]; 3 mM h9e solution without BSA, 30 min test): performed as Newtonian liquid | G′ after 2 hours of testing ([3]; 0.1 wt % BSA): about 110 Pa | G′ after 2 hours of testing ([3]; 0.5 wt % BSA): over 900 Pa | G′ after 2 hours of testing ([3]; 1 wt % BSA): 680 Pa | G′ after 2 hours of testing ([3]; 5 wt % BSA): 200 Pa | gel strength ([3]; 0.5% h9e peptide and 0.5% BSA, incubated at 37° C. for 30 min): about 450 Pa
